Results taken from patent US12534699B2, “Method for promoting growth of bacteria of genus Bifidobacterium” (KABUSHIKI KAISHA YAKULT HONSHA, priority 2019, dated 2026).

Tests used:
Format in all cases: cell-based
[1] = tested on: Bifidobacterium bifidum YIT 10347 (BF-1); assay: Culture of BF-1 in skimmed milk culture medium with L-cystine or L-cysteine; conditions: for viable cell count and acidity versus culture medium not containing L-cystine and L-cysteine: BF-1, simultaneous heating culture medium (skimmed milk or whey), 0.001 to 0.1% (w/v), FIGS. 5 and 6; for concentration at which the viable cell count was maximum: BF-1, skimmed milk simultaneous heating culture medium, 12 hours
Protocol: (§1) Bifidobacterium breve YIT 12272 (hereinafter, referred to as BbY), Bifidobacterium bifidum YIT 10347 (hereinafter, referred to as BF-1), Lactobacillus casei YIT 9029 (hereinafter, referred to as YIT 9029), and Lactobacillus acidophilus YIT 0198 (hereinafter, referred to as YIT 0198) were used.
(§2) A skimmed milk powder (ABC, manufactured by MEGMILK SNOW BRAND Co., Ltd.) was dissolved in RO water at 12% (w/v), the solution was dispensed in 10 mL aliquots in a rimmed medium-sized test tube while replacing the headspace with nitrogen gas and sealed with a butyl rubber stopper. Subsequently, the solution was sterilized by heat in an autoclave (SX-500, manufactured by Tomy Seiko Co., Ltd.) at 115° C. for 30 minutes to provide a skimmed milk culture medium (additive-free culture medium). In addition, a skimmed milk culture medium (simultaneous heating culture medium) was prepared in anaerobic conditions by adding an L-cystine (manufactured by Kyowa Hakko Bio Co., Ltd.) aqueous suspension or an L-cysteine hydrochloride (manufactured by Nichiri Kagaku Co., Ltd.) aqueous solution to a skimmed milk culture medium at a final concentration of 0.05 (w/v) % and performing heat sterilization after the addition of the suspension or the solution, and a skimmed milk culture medium (individual heating culture medium) was prepared in anaerobic conditions by adding the suspension or the solution to a skimmed milk culture medium at a final concentration of 0.05 (w/v) % after heat sterilization and immediately before inoculation. Here, the L-cystine aqueous suspension and the L-cysteine hydrochloride aqueous solution were prepared as a 5% (w/v) aqueous suspension and a 5% (w/v) aqueous solution, respectively, and were added to each culture medium at an amount of 1% (v/v). In order to unify the changes in the concentration and the changes in the redox potential of samples due to the addition of the solution, 1% (v/v) of sterilized water was added to the simultaneous heating culture medium immediately before inoculation, to the individual heating culture medium before heating, and to the additive-free culture medium before heating and immediately before inoculation, i.e., twice.
(§3) When bacteria were inoculated, inoculation was performed while replacing the headspace of the container with nitrogen gas, and the nitrogen gas was sealed with a butyl rubber stopper, followed by culture. The culture was performed in a thermostat water bath set to 37° C. for 12 hours.
(§4) The pH of a culture medium or a bacterial solution was measured using a desk-top pH meter (F52, manufactured by HORIBA, Ltd.).
(§5) The amount of a 0.1 N sodium hydroxide aqueous solution for 9.0 g of a bacterial solution required to reach a pH of 8.5 was defined as acidity. The measurement was performed using an automatic titrator (manufactured by HIRANUMA Co., Ltd.).
(§6) Regardless of the bacterial strain, a bacterial solution was appropriately diluted with a 0.85% (w/v) sodium chloride aqueous solution (physiological saline solution). The diluted bacterial solution was inoculated with a spiral plater EDDY JET (manufactured by IUL Instruments GmbH) on a plate culture medium of TOS propionate agar medium (manufactured by Yakult Pharmaceutical Industry Co., Ltd.) in the case of bacteria of the genus Bifidobacterium and a plate culture medium of BCP Added Plate Count medium (manufactured by EIKEN CHEMICAL CO., LTD.) in the case of bacteria of the genus Lactobacillus, followed by culture at 37° C. for 48 to 72 hours. The grown colonies were counted as the viable cell count. The bacteria of the genus Lactobacillus were cultured in aerobic conditions, and the bacteria of the genus Bifidobacterium were cultured in anaerobic conditions (Anaero Pack, manufactured by MITSUBISHI GAS CHEMICAL COMPANY, INC.). Colonies were counted using a colony counter ProtoCOL (manufactured by Synoptics Ltd.).
As in Example 1, each simultaneous heating culture medium of milk and L-cystine or L-cysteine was prepared. […]

[2] = tested on: Lactobacillus casei YIT 9029; assay: Culture of YIT 9029 in skimmed milk culture medium with L-cystine or L-cysteine; conditions: YIT 9029, skimmed milk culture medium, 0.05 (w/v) %, 37° C., 12 hours, FIG. 1
Protocol: as §1
(§7) A skimmed milk powder (ABC, manufactured by MEGMILK SNOW BRAND Co., Ltd.) was dissolved in RO water at 12% (w/v), the solution was dispensed in 10 mL aliquots in a rimmed medium-sized test tube while replacing the headspace with nitrogen gas and sealed with a butyl rubber stopper. Subsequently, the solution was sterilized by heat in an autoclave (SX-500, manufactured by Tomy Seiko Co., Ltd.) at 115° C. for 30 minutes to provide a skimmed milk culture medium (additive-free culture medium). […]
(§8) The pH of a culture medium or a bacterial solution was measured using a desk-top pH meter (F52, manufactured by HORIBA, Ltd.). […]
(§9) Regardless of the bacterial strain, a bacterial solution was appropriately diluted with a 0.85% (w/v) sodium chloride aqueous solution (physiological saline solution). […] The grown colonies were counted as the viable cell count. […] Colonies were counted using a colony counter ProtoCOL (manufactured by Synoptics Ltd.).

[3] = tested on: Lactobacillus acidophilus YIT 0198; assay: Culture of YIT 0198 in skimmed milk culture medium with L-cystine or L-cysteine; conditions: YIT 0198, skimmed milk culture medium, 0.05 (w/v) %, 37° C., 12 hours, FIG. 1
Protocol: as §1, §7, §8, §9

[4] = tested on: Bifidobacterium breve YIT 12272 (BbY); assay: Culture of BbY in skimmed milk culture medium with L-cystine or L-cysteine (simultaneous / individual heating); conditions: for growth rate of the viable cell count, simultaneous versus individual heating (growth curve): final concentration 0.03% (w/v), FIG. 2; for viable cell count and acidity versus culture medium not containing L-cystine and L-cysteine: simultaneous heating culture medium (skimmed milk or whey), 0.001 to 0.1% (w/v), FIGS. 3 and 4; for concentration at which the viable cell count was maximum: skimmed milk simultaneous heating culture medium, culture time 9 hours
Protocol: as §1
as §2, with “Subsequently, the solution was sterilized by heat in an autoclave (SX-500, manufactured by Tomy Seiko Co., Ltd.) at 115° C. for 30 minutes to provide a skimmed milk culture medium (additive-free culture medium).” left out
as §3, §4, §5, §6
As in Example 1, each simultaneous heating culture medium of milk and L-cystine or L-cysteine was prepared. The addition concentration of L-cystine or L-cysteine was adjusted to 0.001, 0.003, 0.005, 0.01, 0.03, 0.05, or 0.1% (w/v) as the final concentration. […]

[5] = BbY, milk, L-cysteine 0.03% (w/v), filter sterilization (0.22 μm, no heating), culture time 9 h
[6] = BbY, milk, L-cysteine 0.03% (w/v), filter sterilization (0.22 μm, no heating), culture time 12 h
[7] = BbY, milk, L-cysteine 0.03% (w/v), individual heating, culture time 9 h
[8] = BbY, milk, L-cysteine 0.03% (w/v), individual heating, culture time 12 h
[9] = BbY, milk, L-cysteine, simultaneous heating, culture time 9 h
[10] = BbY, milk, L-cysteine, simultaneous heating, culture time 12 h
[11] = BF-1, skimmed milk, 0.05 (w/v) %, cultured 12 hours
[12] = BbY, skimmed milk, 0.05 (w/v) %, cultured 12 hours
[13] = BbY, skimmed milk, L-cystine 0.03% (w/v), 115° C. for 30 min, after heat sterilization (individual heating), 12 hours
[14] = BbY, skimmed milk, L-cystine 0.03% (w/v), 115° C. for 30 min, before heat sterilization (simultaneous heating), 12 hours
[15] = BbY, skimmed milk, L-cystine 0.03% (w/v), 121° C. for 30 min, after heat sterilization (individual heating), 12 hours
[16] = BbY, skimmed milk, L-cystine 0.03% (w/v), 121° C. for 30 min, before heat sterilization (simultaneous heating), 12 hours

With Cl.N[C@@H](CS)C(=O)O [L-cysteine, L-cysteine hydrochloride] the “viable cell count and acidity versus culture medium not containing L-cystine and L-cysteine” value [1] was “increased”, the “concentration at which the viable cell count was maximum” value (from here on “concentration”) [1] was 0.05 % (w/v) and the “growth promotion by addition” value [2] was “not observed”. For the same compound, the “growth promotion by addition” value [3] was “not observed”, the “growth rate of the viable cell count, simultaneous versus individual heating (growth curve)” value ([4]; BbY) was “higher in the case of the simultaneous heating” and the Acidity [4, 5] was 3.62 ml/9 g. The Viable cell count [4, 5] was 8.92 × 10^8 CFU/ml, the pH [4, 5] was 5.40 and the Acidity [4, 6] was 5.12 ml/9 g. The Viable cell count [4, 6] was 1.64 × 10^9 CFU/ml, the pH [4, 6] was 4.94 and the Acidity [4, 7] was 3.59 ml/9 g. The Viable cell count [4, 7] was 7.77 × 10^8 CFU/ml, the pH [4, 7] was 5.42 and the Acidity [4, 8] was 5.04 ml/9 g. For the same compound, the Viable cell count [4, 8] was 1.78 × 10^9 CFU/ml, the pH [4, 8] was 5.02 and the Acidity [4, 9] was 4.47 ml/9 g. The Viable cell count [4, 9] was 1.34 × 10^9 CFU/ml, the pH [4, 9] was 5.17 and the Acidity [4, 10] was 8.05 ml/9 g. For the same compound, the Viable cell count [4, 10] was 3.46 × 10^9 CFU/ml, the pH [4, 10] was 4.64 and the “viable cell count and acidity versus culture medium not containing L-cystine and L-cysteine” value ([4]; BbY) was “increased”. The “concentration” value ([4]; BbY) was 0.03 % (w/v), the “promotion of growth by simultaneous heating with milk” value ([4]; FIGS. 1 and 2) was “promotion of growth was observed” and the “difference in the culture state of BbY, individual heating versus filter sterilization” value ([4]; L-cysteine added to milk at 0.03% (w/v)) was “no difference”.

For N[C@@H](CSSC[C@H](N)C(=O)O)C(=O)O [L-cystine], the “viable cell count and acidity versus culture medium not containing L-cystine and L-cysteine” value [1] was “increased”, the “concentration” value [1] was 0.1 % (w/v) and the “acidity higher with simultaneous heating than individual heating” value [1, 11] was 1.3 times. The “viable cell count higher with simultaneous heating than individual heating” value [1, 11] was 4.5 times, the “growth promotion by addition” value [2] was “not observed” and the “growth promotion by addition” value [3] was “not observed”. The “growth rate of the viable cell count, simultaneous versus individual heating (growth curve)” value ([4]; BbY) was “higher in the case of the simultaneous heating”, the “viable cell count and acidity versus culture medium not containing L-cystine and L-cysteine” value ([4]; BbY) was “increased” and the “concentration” value ([4]; BbY) was 0.01 % (w/v). For the same compound, the “acidity higher with simultaneous heating than individual heating” value [4, 12] was 1.3 mL/9 g, the “viable cell count increase compared to absence of L-cystine” value [4, 12] was 5.6 times and the “viable cell count, simultaneous heating versus individual heating” value [4, 12] was “the same”. The Acidity [4, 13] was 3.82 mL/9 g, the Viable cell count [4, 13] was 1.29 × 10^9 CFU/mL and the pH [4, 13] was 5.34. The Acidity [4, 14] was 5.40 mL/9 g, the Viable cell count [4, 14] was 1.89 × 10^9 CFU/mL and the pH [4, 14] was 5.00. The Acidity [4, 15] was 4.00 mL/9 g, the Viable cell count [4, 15] was 1.12 × 10^9 CFU/mL and the pH [4, 15] was 5.26. The Acidity [4, 16] was 5.42 mL/9 g, the Viable cell count [4, 16] was 1.86 × 10^9 CFU/mL and the pH [4, 16] was 4.96.
